Values of other authors, collected in patent US20090131263A1, “Normalization methods for G-protein coupled receptor membrane array” (priority 2007, published 2009).
pKd: −log10 of the molar value.

How the values were obtained:
[1] = biological target: Gs (Homo sapiens, UniProt P63092); conditions: unactivated form of G protein Gs, reconstituted vesicle systems
[2] = biological target: Go (Homo sapiens, UniProt P09471); conditions: unactivated form of G protein Go, reconstituted vesicle systems
[3] = biological target: Gi2 (Homo sapiens, UniProt P04899); conditions: unactivated form of G protein Gi2, reconstituted vesicle systems
Chain of Gi2 (P04899 whole entry): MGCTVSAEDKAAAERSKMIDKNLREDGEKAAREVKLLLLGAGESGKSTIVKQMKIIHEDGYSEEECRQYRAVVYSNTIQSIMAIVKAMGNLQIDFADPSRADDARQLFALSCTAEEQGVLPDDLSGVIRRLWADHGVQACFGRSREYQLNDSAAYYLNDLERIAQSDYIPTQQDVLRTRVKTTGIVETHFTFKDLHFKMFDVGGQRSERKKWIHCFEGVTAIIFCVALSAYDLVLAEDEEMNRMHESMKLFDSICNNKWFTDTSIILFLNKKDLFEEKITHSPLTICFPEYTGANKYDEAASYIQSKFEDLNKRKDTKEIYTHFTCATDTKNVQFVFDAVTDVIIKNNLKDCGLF

[4] = biological target: Gi1 (Homo sapiens, UniProt P63096); conditions: unactivated form of G protein Gi1, reconstituted vesicle systems
Chain of Gi1 (P63096 whole entry): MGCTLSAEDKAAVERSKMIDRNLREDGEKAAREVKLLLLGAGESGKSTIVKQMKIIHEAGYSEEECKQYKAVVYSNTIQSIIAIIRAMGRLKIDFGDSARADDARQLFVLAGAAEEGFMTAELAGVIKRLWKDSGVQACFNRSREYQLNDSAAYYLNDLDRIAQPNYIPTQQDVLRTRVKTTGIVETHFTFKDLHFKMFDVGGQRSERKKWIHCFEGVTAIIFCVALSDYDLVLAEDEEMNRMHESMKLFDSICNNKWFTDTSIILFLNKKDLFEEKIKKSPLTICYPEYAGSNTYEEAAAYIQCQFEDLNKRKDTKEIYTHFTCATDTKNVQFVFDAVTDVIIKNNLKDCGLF

Chain of Gs (P63092 whole entry): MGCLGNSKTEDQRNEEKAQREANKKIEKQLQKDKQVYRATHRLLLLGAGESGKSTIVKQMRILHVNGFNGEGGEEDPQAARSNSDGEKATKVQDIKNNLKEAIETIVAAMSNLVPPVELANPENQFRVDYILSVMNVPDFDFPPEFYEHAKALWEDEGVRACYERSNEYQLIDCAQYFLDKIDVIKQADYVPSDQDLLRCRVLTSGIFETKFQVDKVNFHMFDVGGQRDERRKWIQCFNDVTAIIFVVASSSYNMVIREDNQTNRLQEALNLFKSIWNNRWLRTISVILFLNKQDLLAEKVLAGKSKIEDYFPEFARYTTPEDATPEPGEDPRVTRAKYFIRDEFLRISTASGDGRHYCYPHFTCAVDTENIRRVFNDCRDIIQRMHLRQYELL
Chain of Go (P09471 whole entry): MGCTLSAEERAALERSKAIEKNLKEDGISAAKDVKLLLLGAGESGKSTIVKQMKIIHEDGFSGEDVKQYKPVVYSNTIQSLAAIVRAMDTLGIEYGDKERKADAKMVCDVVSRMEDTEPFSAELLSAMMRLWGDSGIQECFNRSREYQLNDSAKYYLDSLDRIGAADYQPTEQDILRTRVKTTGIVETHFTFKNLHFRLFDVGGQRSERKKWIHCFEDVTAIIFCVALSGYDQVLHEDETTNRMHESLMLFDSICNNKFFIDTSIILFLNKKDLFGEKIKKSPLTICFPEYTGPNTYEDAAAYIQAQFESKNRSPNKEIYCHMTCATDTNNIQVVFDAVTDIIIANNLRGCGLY

pKd [1]: 7.15
pKd [2]: 8.22
pKd [3]: 6.52
pKd [4]: 6.82
Substance: BODIPY-FL-GTPγS
